The values below come from the OPERA property sets (Mansouri et al. 2018).

The structures appear in SMILES notation.

Settings in one series: not given
Broadly, the melting point is the temperature of the solid-liquid transition. With `COS(=O)(=O)c1ccc([N+](=O)[O-])cc1`, the melting point amounted to 94 °C.

Take `CC(C)(C(=O)O)n1nc2ccccc2n1`: the melting point amounted to 152 °C.

As a reminder, the boiling point is the temperature at which the vapour pressure of the liquid equals the pressure above it. For `CN(C)c1ccc(Cl)cc1`, the boiling point came to 231 °C and the melting point was found to be 35.5 °C.

As for `CCOC(O)C(F)(F)F` (configuration not stated), the boiling point was determined as 104 °C.

As to `C[Si](C)(C)O[Si](C)(C)O[Si](C)(C)O[Si](C)(C)O[Si](C)(C)O[Si](C)(C)O[Si](C)(C)O[Si](C)(C)O[Si](C)(C)C`, the boiling point turned out to be 308 °C.

As to `NNC(=O)c1cccc(Br)c1`, the melting point is 158 °C.

Turning to `CC(C)OC(=O)OOC(C)(C)C`, the ready biodegradability entry was “not readily biodegradable”.

In the case of `OCCOCCOCCO`, the boiling point was 285 °C, the melting point is -7 °C and the ready biodegradability result is “readily biodegradable”.

In turn, `O=C(O)CCC(=O)OOC(=O)CCC(=O)O` registered a melting point of 127 °C.

For the compound `COc1ccc2c(c1O)-c1cccc3c1C(C2)N(C)CC3` (configuration not stated), the melting point came out at 124 °C.

Consider `COc1ccccc1N1CCNCC1`, for which the melting point amounted to 38.5 °C.

`O=C(O)c1ccccc1C(F)(F)F` registered a melting point of 111 °C.

Take `CCCCCCCCCCCC(=O)CCCCCCCCCCC`: the melting point was found to be 70.2 °C.

Consider `O=[N+]([O-])CCc1ccccc1`, for which the boiling point worked out at 250 °C and the melting point is -23 °C.

Consider `CN(C)C#N`, for which the boiling point was found to be 164 °C.

Turning to `O=C1C=Cc2cccc3cccc1c23`, the log10 vapour pressure (mmHg) is -5.17 and the melting point is 154 °C.

For `CC(O)(c1ccc(Cl)cc1)c1ccc(Cl)cc1`, the melting point was 70 °C.

Turning to `Cc1cc(C)cc(OP(=O)(Oc2cc(C)cc(C)c2)Oc2cc(C)cc(C)c2)c1`, the ready biodegradability entry was “not readily biodegradable”.

The compound `CCCCOc1ccc(OCCCC)cc1` came in with a melting point of 45.5 °C.

In turn, `O=C(O)c1cc([N+](=O)[O-])ccc1Cl` displayed a melting point of 166 °C.

`O=S(=O)(O)NC1CCCCC1` displayed a melting point of 170 °C.

Regarding `CCCC/C=C/CO`, the boiling point came to 178 °C.

Take `Clc1cc(Cl)c2c(Cl)c(Cl)cc(Cl)c2c1Cl`: the log10 Koa is 9.69 and the log10 vapour pressure (mmHg) was -6.46.

Compound `Ic1cc(I)c(I)c(I)c1I` registered a melting point of 172 °C.

Turning to `COc1ccc(Cl)c(Cl)c1Cl`, the melting point was 69.5 °C.

Consider `Cc1csc(C)c1C`, for which the boiling point was 162 °C and the melting point was -26.2 °C.

For the compound `CCCCCCCCCCC(C)=O`, the boiling point was 246 °C, the log10 vapour pressure (mmHg) was -1.69 and the melting point turned out to be 21 °C.

With `CCCCCCCC(=O)CC`, the boiling point is 203 °C and the melting point stood at 2.5 °C.

Regarding `S=C=Nc1ccc(Cl)cc1`, the boiling point stood at 250 °C and the melting point was 46 °C.

As to `CCCC(C)CCC`, the boiling point was 118 °C, the log10 biodegradation half-life (days) was determined as 0.602, the log10 vapour pressure (mmHg) was determined as 1.31 and the melting point is -121 °C.

`C#CCCO`: the boiling point was found to be 129 °C and the melting point was -63.6 °C.

With `COc1cccc(OC)c1C(=O)O`, the log10 vapour pressure (mmHg) was -6.72.

Compound `O=C(O)c1ccsc1` showed a melting point of 138 °C.

Consider `Clc1cc(Cl)c2ccccc2n1`, for which the boiling point stood at 281 °C and the melting point is 67.5 °C.

As for `CC(=O)C(c1ccccc1)c1ccccc1`, the boiling point turned out to be 307 °C and the melting point was determined as 46 °C.

`Cc1cc(C)c2cc(C)ccc2c1` showed a melting point of 12 °C.

Turning to `CCCCCCCCCCCC[N+](C)(C)CC(=O)[O-]`, the ready biodegradability result is “readily biodegradable”.

Take `CCOCn1c(-c2ccc(Cl)cc2)c(C#N)c(Br)c1C(F)(F)F`: the melting point stood at 100 °C.

As to `Cc1ccc2nc3c(ccc4ccccc43)c(C)c2c1`, the melting point is 159 °C.

Compound `Cc1cc(C)cc(C(=O)N(NC(=O)c2ccccc2)C(C)(C)C)c1` came in with a melting point of 206 °C.

For the compound `CC(Cl)(Cl)Cl`, the boiling point was 74 °C, the log10 Henry constant (atm·m³/mol) is -1.76, the log10 Koa amounted to 2.7 and the log10 Koc (L/kg) amounted to 1.95. Further, the log10 vapour pressure (mmHg) is 2.09, the melting point is -30.4 °C and the ready biodegradability entry is on record as “not readily biodegradable”.

`Nc1ccccc1F`: the boiling point amounted to 175 °C and the melting point is -34.6 °C.

Turning to `O=Cc1ccco1`, the boiling point came to 162 °C, the log10 vapour pressure (mmHg) was 0.344, the melting point was -38.1 °C and the ready biodegradability result is listed as “readily biodegradable”.

As to `Cc1cccc(N(C)C(=S)Oc2ccc3c(c2)C2CCC3C2)c1` (configuration not stated), the melting point turned out to be 93 °C.

Take `Cc1cc(Cl)ccc1OCCCC(=O)O`: the log10 Koc (L/kg) worked out at 2.73, the log10 vapour pressure (mmHg) is -6.36 and the melting point is 100 °C.

On to `S=C=NC1CCCCC1`, for which the boiling point came out at 220 °C.

The compound `C=C(C)[C@H]1Cc2c(cc(O)c3c2O[C@@H]2COc4cc(OC)c(OC)cc4[C@@H]2C3=O)O1` gave a melting point of 195 °C.

The compound `O=C1C[C@@H](c2ccc(O)cc2)Oc2cc(O)cc(O)c21` yielded a melting point of 251 °C.

As for `O=C1C=CC(=O)c2ccccc21`, the melting point was 128 °C and the ready biodegradability result was “not readily biodegradable”.

Consider `CC(=O)N1CCCCC1`, for which the boiling point worked out at 226 °C and the melting point is -13.4 °C.

As for `c1ccc2nn(C3CCCCC3)nc2c1`, the melting point amounted to 46.5 °C.

For the compound `Cc1c(N)c(=O)n(-c2ccccc2)n1C`, the melting point was found to be 109 °C.

For `CC(=O)Nc1nnc(S(N)(=O)=O)s1`, the melting point was 260 °C.

`COc1cccc(OC)n1` registered a boiling point of 179 °C.

As for `Clc1ccc(Cl)c(-c2cc(Cl)c(Cl)c(Cl)c2Cl)c1`, the log10 Henry constant (atm·m³/mol) was -4.64.

Compound `O=C1c2ccccc2C(=O)C1c1ccc2ccccc2n1` registered a melting point of 241 °C.

Compound `CC(=O)NCCCCCC(=O)O` returned a melting point of 104 °C.

As to `Clc1nc(Cl)nc(Cl)n1`, the boiling point came to 192 °C and the melting point amounted to 154 °C.

Compound `CCOc1ccc([N+](=O)[O-])cc1` registered a boiling point of 283 °C and a melting point of 60 °C.

As to `COCC(C)OC` (configuration not stated), the boiling point came out at 96 °C.

On to `CCC(Cl)CCl` (configuration not stated), for which the boiling point is 124 °C and the log10 vapour pressure (mmHg) was found to be 1.32.

Consider `COc1ccc(NS(=O)(=O)c2ccc(N)cc2)nn1`, for which the melting point was found to be 182 °C.

`CCOC(=O)CCCl` registered a boiling point of 162 °C.

On to `O=CCCc1ccccc1`, for which the boiling point was 224 °C.

Regarding `CCCCOC(=O)CC(O)(CC(=O)OCCCC)C(=O)OCCCC`, the melting point is -20 °C.

In turn, `ClC1=C(Cl)C(Cl)(Cl)C(Cl)(Cl)C1(Cl)Cl` had a boiling point of 283 °C and a melting point of 40 °C.

`Clc1cccs1`: the boiling point worked out at 128 °C, the log10 vapour pressure (mmHg) worked out at 1.38 and the melting point is -71.9 °C.

With `CC[C@H]1CC[C@H](C)C1`, the boiling point amounted to 121 °C and the melting point was -108 °C.

Regarding `O=C(O)COc1ccc(C(=O)c2cccs2)c(Cl)c1Cl`, the melting point was determined as 149 °C.

Turning to `CC(C=O)Cc1ccc(C(C)(C)C)cc1` (configuration not stated), the ready biodegradability result is reported as “not readily biodegradable”.

Compound `O=[N+]([O-])c1ccc(F)cc1F` gave a boiling point of 207 °C and a melting point of 9.8 °C.

The compound `O=C(O)C=Cc1cccc([N+](=O)[O-])c1` had a melting point of 179 °C.

Compound `OC[C@H]1O[C@@H](Oc2ccc(O)cc2)[C@H](O)[C@@H](O)[C@@H]1O` showed a melting point of 200 °C.

The same series, now with this note: fish.
As to `CCC(C)(NC(=O)c1cc(Cl)c(C)c(Cl)c1)C(=O)CCl` (configuration not stated), the log10 biotransformation half-life (days) was found to be 0.16.

The compound `COc1ccc(Cl)c(Cl)c1Cl` registered a log10 BCF of 2.96 and a log10 biotransformation half-life (days) of 1.4.

Regarding `CC(Cl)(Cl)Cl`, the log10 BCF was determined as 0.7 and the log10 biotransformation half-life (days) is -1.39.
